Drawing on the NIST ThermoML archive (doi:10.1007/s10765-016-2104-7), this text covers viscosity for three compounds.

The conditions of this data set: Liquid, Vibrating wire viscometry.

Numbers after ± are expanded uncertainties.

Usually viscosity stands for the internal friction of a fluid under shear. With `[Sn]` [tin], the viscosity came to 1.253 ± 0.2 mPa·s (873 K), 1.142 ± 0.3 mPa·s (973 K) and 1.087 ± 0.047 mPa·s (1073 K).
Consider `[Ag]` [silver], for which the viscosity is reported as 3.52 ± 0.74 mPa·s (1273 K); 2.904 ± 0.45 mPa·s (1323 K); 2.812 ± 0.65 mPa·s (1373 K); 2.649 ± 0.33 mPa·s (1423 K); 2.54 ± 0.22 mPa·s (1473 K); 2.498 ± 0.46 mPa·s (1523 K). The viscosity by setting is: (1573 K) 2.399 ± 0.35 mPa·s; (1623 K) 2.332 ± 0.39 mPa·s; (1673 K) 2.214 mPa·s.
Turning to `[Au]` [gold], the viscosity amounted to 5.625 ± 0.65 mPa·s (1373 K); 5.47 ± 0.16 mPa·s (1423 K); 4.963 ± 0.36 mPa·s (1473 K); 4.764 ± 0.25 mPa·s (1523 K); 4.495 ± 0.32 mPa·s (1573 K); 4.276 ± 0.51 mPa·s (1623 K). Moreover, the viscosity (1673 K) is on record as 3.981 ± 0.57 mPa·s.
